Test results reported in publication PMC9995496, “A screen for MeCP2-TBL1 interaction inhibitors using a luminescence-based assay” (Scientific Reports, 2023).
Where a name gives a salt, the structure may show the parent alone. Read-outs that look alike come from different tables or passages of the source.

Test system: PRKACA-PRKAR2A interaction (SmBiT-PRKACA / LgBiT-PRKAR2A), protein kinase A
Set-up: NanoLuc complementation counter-screen in cell extract, PRKACA with PRKAR2A, loss of luminescence, detects NanoLuc interference
Settings: counter-screen for NanoLuc interference, 0.5 h, 20 µM, inhibitor

## C[C@]12CC[C@H]3[C@@H](CC[C@@]45O[C@@H]4C(O)=C(C#N)C[C@]35C)[C@@H]1CC[C@@H]2O [UM0141801:01, Trilostane]
  Inh (PKA): 1.891%

## C#CCC(Cc1cnc2nc(N)nc(N)c2n1)c1ccc(C(=O)N[C@@H](CCC(=O)O)C(=O)O)cc1 (stereo partly drawn) [UM0141802:01, Pralatrexate]
  Inh (PKA): 2.023%

## O=C(NNc1ccccc1)c1ccncc1 [UM0141803:01, PluriSIn #1 (NSC 14613)]
  Inh (PKA): 1.467%

## O=C1CN2Cc3c(ccc(Cl)c3Cl)N=C2N1 [UM0141804:01, Anagrelide HCl]
  Inh (PKA): 2.161%

## CC(C)C[C@@H](C(=O)N[C@H](C(=O)OC1CCCC1)c1ccccc1)[C@H](O)C(=O)NO [UM0141805:01, Tosedostat (CHR2797)]
  Inh (PKA): 5.594%

## CCc1c(C(=O)C(N)=O)c2c(OCC(=O)O)cccc2n1Cc1ccccc1 [UM0141806:01, Varespladib (LY315920)]
  Inh (PKA): 1.134%

## NS(=O)(=O)c1ccc(NC(=O)Nc2ccc(F)cc2)cc1 [UM0141807:01, U-104]
  Inh (PKA): 3.096%

## CC1(C)O[C@@H]2[C@@H](CO[C@@]3(COS(N)(=O)=O)OC(C)(C)O[C@@H]23)O1 [UM0141808:01, Topiramate]
  Inh (PKA): 0.4952%

## CC(C)n1c(/C=C/[C@@H](O)C[C@@H](O)CC(=O)O)c(-c2ccc(F)cc2)c2ccccc21 [UM0141809:01, Fluvastatin Sodium]
  Inh (PKA): 14.88%

## C#CCN[C@@H]1CCc2ccccc21 [UM0141810:01, Rasagiline Mesylate]
  Inh (PKA): 2.611%

## C[C@H](NCc1ccc(OCc2cccc(F)c2)cc1)C(N)=O [UM0141812:01, Safinamide Mesylate]
  Inh (PKA): 2.51%

## CC[C@H](C)C(=O)O[C@H]1C[C@H](O)C=C2C=C[C@H](C)[C@H](CC[C@@H](O)C[C@@H](O)CC(=O)O)[C@H]21 [UM0141813:01, Pravastatin sodium]
  Inh (PKA): 0.8236%

## NC(=O)c1cccc(-c2cccc(OC(=O)NC3CCCCC3)c2)c1 [UM0141814:01, URB597]
  Inh (PKA): 16.26%

## COc1cc(F)c(C(C)C)cc1-c1ccc(C(F)(F)F)cc1CN1C(=O)O[C@H](c2cc(C(F)(F)F)cc(C(F)(F)F)c2)[C@@H]1C [UM0141816:01, Anacetrapib (MK-0859)]
  Inh (PKA): -2.323%

## CCC(CC)CC1(C(=O)Nc2ccccc2SC(=O)C(C)C)CCCCC1 [UM0141817:01, Dalcetrapib (JTT-705, RO4607381)]
  Inh (PKA): 16.33%

## Cc1cc(C)c2c(c1)[C@@H](N(Cc1cc(C(F)(F)F)cc(C(F)(F)F)c1)c1nnn(C)n1)CCCN2C[C@H]1CC[C@H](C(=O)O)CC1 [UM0141818:01, Evacetrapib (LY2484595)]
  Inh (PKA): 12.81%

## CCOC(=O)N1c2ccc(C(F)(F)F)cc2[C@@H](N(Cc2cc(C(F)(F)F)cc(C(F)(F)F)c2)C(=O)OC)C[C@H]1CC [UM0141819:01, Torcetrapib]
  Inh (PKA): 4.254%

## NC(=O)N1CCC(CC(=O)N2CCC([C@H]3c4ncc(Br)cc4CCc4cc(Cl)cc(Br)c43)CC2)CC1 [UM0141820:01, Lonafarnib]
  Inh (PKA): 11.04%

## O=C(/C=C/c1cccnc1)NCCCCC1CCN(C(=O)c2ccccc2)CC1 [UM0141821:01, FK866 (APO866)]
Inh (PKA)
  Inh (PKA): 3.817%

## O=C(Nc1ccccc1)Nc1ccc(-c2ccc(C(=O)[C@@H]3CCC[C@H]3C(=O)O)cc2)cc1 [UM0141822:01, A922500]
  Inh (PKA): 32.88%

## Cc1ccc(C(=O)c2cc(O)c(O)c([N+](=O)[O-])c2)cc1 [UM0141823:01, Tolcapone]
  Inh (PKA): 63.96%

## Nc1ncnc2c1C(=O)N(c1ccc([C@H]3CC[C@H](CC(=O)O)CC3)cc1)CCO2 [UM0141824:01, PF-04620110]
  Inh (PKA): 1.569%

## CC(C)c1cc(-c2n[nH]c(=O)n2-c2ccc3c(ccn3C)c2)c(O)cc1O [UM0141825:01, Ganetespib (STA-9090)]
  Inh (PKA): 30.75%

## CN(NC(=O)CC(=O)NN(C)C(=S)c1ccccc1)C(=S)c1ccccc1 [UM0141826:01, Elesclomol (STA-4783)]
  Inh (PKA): 1.652%
